Laboratory results published in PubChem BioAssay AID504510 (The Scripps Research Institute Molecular Screening Center, 2011).
Calls of active or inactive are those of the source. The rule behind the calls is not given here.

Assay: cytotoxicity in cultured cells, late-stage follow-up, cytotoxicity control for LYPLA1 inhibitor project, cell-based, absorbance, serum-free and serum media, set 2 (AID 504510)
Conditions: cell viability, serum-free vs serum media

| SMILES | CC50 (serum-free media) | CC50 (with FCS) |
| --- | --- | --- |
| COCC1CCCCN1C(=O)n1ncc(C(O)(c2ccccc2)c2ccccc2)n1 (centres undefined) | > 50 µM (inactive) | > 50 µM (inactive) |
| CCC1CCCCN1C(=O)n1ncc(C(O)(c2ccccc2)c2ccccc2)n1 (centres undefined) | > 50 µM (inactive) | > 50 µM (inactive) |
